Reference: US11427550B2, “5-fluorouracil compounds” (NUCORION PHARMACEUTICALS, INC., priority 2018, dated 2022)
Where two headings read alike, the source gives them in different places.

Assay: Tissue distribution following oral administration of reference compounds and the disclosed compounds
Type: in vivo, rats
Conditions: rat
Description: The liver specificity of the disclosed compounds is compared relative to a corresponding active compound in liver and other organs that could be targets of toxicity.
Reference compounds and the cyclic deoxyribonucleotide, acetal, and hemiaminal compounds are administered at 5-50 mg/kg to fasted rats by oral gavage. Plasma concentrations of the metabolites, and parent compounds in circulation and in the hepatic portal vein are determined by HPLC-UV, and the liver, small intestine, and other organ concentrations are measured by LC-MS using the standard chromatography method.

[1] = drug level in the blood 1 hour after oral administration at 5 mg/kg dose in rats (Table 1), read-out: Drugblood
[2] = drug level in the liver 1 hour after oral administration at 5 mg/kg dose in rats (Table 1), read-out: Drugliver
[3] = prodrug level in the blood 1 hour after oral administration at 5 mg/kg dose in rats (Table 2), read-out: Drugblood
[4] = prodrug level in the liver 1 hour after oral administration at 5 mg/kg dose in rats (Table 2), read-out: Drugliver

SMILES | concentration at 1 h [1] [ng/mL] | concentration at 1 h [2] [ng/g] | concentration at 1 h [3] [ng/mL] | concentration at 1 h [4] [ng/g]
C[C@H]1O[C@@H](n2cc(F)c(=O)[nH]c2=O)[C@@H]2OC(c3ccc(O)cc3)O[C@@H]21 (stereo partly drawn) [Compound 116, 5-Fluoro-1-((3aR,4R,6R,6aR)-2-(4-hydroxyphenyl)-6-methyltetrahydrofuro[3,4-d][1,3]dioxol-4-yl)pyrimidine-2,4(1H,3H)-dione] | 1350 | 978 | – | –
O=c1[nH]c(=O)n([C@H]2C[C@@H]3OP(=O)(Oc4ccccc4)OC[C@H]3O2)cc1F (stereo partly drawn) [Compound 122, 5-Fluoro-1-((4aR,6R,7aS)-2-oxido-2-phenoxytetrahydro-4H-furo[3,2-d][1,3,2]dioxaphosphinin-6-yl)pyrimidine-2,4(1H,3H)-dione] | 301 | 1980 | – | –
CCCCCCCCOP1(=O)OC[C@H]2O[C@@H](n3cc(F)c(=O)[nH]c3=O)C[C@@H]2O1 (stereo partly drawn) [Compound 202, 5-Fluoro-1-((4aR,6R,7aS)-2-(octyloxy)-2-oxidotetrahydro-4H-furo[3,2-d][1,3,2]dioxaphosphinin-6-yl)pyrimidine-2,4(1H,3H)-dione] | – | – | 158 | 2560
C[C@H](NP(=O)(OC[C@H]1O[C@@H](n2cc(F)c(=O)[nH]c2=O)C[C@@H]1O)Oc1cccc2ccccc12)C(=O)OCc1ccccc1 (stereo partly shown) [NUC-3373, reference compound] | – | – | < 1 | < 6
CCCCCOC(=O)Nc1nc(=O)n([C@@H]2O[C@H](C)[C@@H](O)[C@H]2O)cc1F [Capecitabine, reference compound] | – | – | 88.4 | 44.7
COc1ccc(C2O[C@@H]3[C@H](O2)[C@@H](C)O[C@H]3n2cc(F)c(=O)[nH]c2=O)cc1 (stereo partly drawn) [Compound 118, 5-Fluoro-1-((3aR,4R,6R,6aR)-2-(4-methoxyphenyl)-6-methyltetrahydrofuro[3,4-d][1,3]dioxol-4-yl)pyrimidine-2,4(1H,3H)-dione] | 3680 | 1220 | – | –
CCCCCCCCCOP1(=O)OC[C@H]2O[C@@H](n3cc(F)c(=O)[nH]c3=O)C[C@@H]2O1 (stereo partly drawn) [Compound 132, 5-Fluoro-1-((4aR,6R,7aS)-2-(nonyloxy)-2-oxidotetrahydro-4H-furo[3,2-d][1,3,2]dioxaphosphinin-6-yl)pyrimidine-2,4(1H,3H)-dione] | 59.9 | 1370 | – | –
O=c1[nH]c(=O)n([C@H]2C[C@@H]3OP(=O)(OCc4ccc(Cl)cc4)OC[C@H]3O2)cc1F (single isomer, unassigned) [Compound 127] | 7.81 | < 6 | – | –
CCCCCCCOP1(=O)OC[C@H]2O[C@@H](n3cc(F)c(=O)[nH]c3=O)C[C@@H]2O1 (stereo partly drawn) [Compound 201, 5-Fluoro-1-((4aR,6R,7aS)-2-(heptyloxy)-2-oxidotetrahydro-4H-furo[3,2-d][1,3,2]dioxaphosphinin-6-yl)pyrimidine-2,4(1H,3H)-dione] | – | – | 109 | 1040
O=c1[nH]c(=O)n([C@H]2C[C@@H]3OP(=O)(OCC4(c5ccccc5)CC4)OC[C@H]3O2)cc1F (stereo partly drawn) [Compound 217, 5-Fluoro-1-((4aR,6R,7aS)-2-oxido-2-((1-phenylcyclopropyl)methoxy)tetrahydro-4H-furo[3,2-d][1,3,2]dioxaphosphinin-6-yl)pyrimidine-2,4(1H,3H)-dione] | – | – | 21.7 | 255
O=c1[nH]c(=O)n([C@H]2C[C@@H]3OP(=O)(OCc4ccc(C(F)(F)F)cc4)OC[C@H]3O2)cc1F (stereo partly drawn) [Compound 156, 5-Fluoro-1-((4aR,6R,7aS)-2-oxido-2-((4-(trifluoromethyl)benzyl)oxy)tetrahydro-4H-furo[3,2-d][1,3,2]dioxaphosphinin-6-yl)pyrimidine-2,4(1H,3H)-dione] | 3.66 | < 6 | – | –
CCOCOC1[C@@H](O)[C@H](n2cc(F)c(=O)n(COCC)c2=O)O[C@@H]1C (stereo in doubt) [Compound 109, 1-((2R,3R,4R,5R)-4-(Ethoxymethoxy)-3-hydroxy-5-methyltetrahydrofuran-2-yl)-3-(ethoxymethyl)-5-fluoropyrimidine-2,4(1H,3H)-dione] | 83.9 | 373 | – | –
O=c1[nH]c(=O)n([C@H]2C[C@@H]3OP(=O)(OCCCC4CCCC4)OC[C@H]3O2)cc1F (stereo partly drawn) [Compound 207, 5-Fluoro-1-((4aR,6R,7aS)-2-(3-cyclopentylpropyloxy)-2-oxidotetrahydro-4H-furo[3,2-d][1,3,2]dioxaphosphinin-6-yl)pyrimidine-2,4(1H,3H)-dione] | – | – | 29.4 | 429
O=c1[nH]c(=O)n([C@H]2C[C@@H]3OP(=O)(OCCCc4ccccc4)OC[C@H]3O2)cc1F (stereo partly drawn) [Compound 220, 5-Fluoro-1-((4aR,6R,7aS)-2-(3-phenylpropyloxy)-2-oxidotetrahydro-4H-furo[3,2-d][1,3,2]dioxaphosphinin-6-yl)pyrimidine-2,4(1H,3H)-dione] | – | – | 122 | 944
O=c1[nH]c(=O)n([C@H]2C[C@@H]3OP(=O)(OCc4ccccc4F)OC[C@H]3O2)cc1F (stereo partly drawn) [Compound 139, 1-((4aR,6R,7aS)-2-(2-Fluorobenzyloxy)-2-oxidotetrahydro-4H-furo[3,2-d][1,3,2]dioxaphosphinin-6-yl)-5-fluoropyrimidine-2,4(1H,3H)-dione] | 11.3 | < 6 | – | –
CCc1ccc(COP2(=O)OC[C@H]3O[C@@H](n4cc(F)c(=O)[nH]c4=O)C[C@@H]3O2)cc1 (stereo partly drawn) [Compound 147, 1-((4aR,6R,7aS)-2-(4-Ethylbenzyloxy)-2-oxidotetrahydro-4H-furo[3,2-d][1,3,2]dioxaphosphinin-6-yl)-5-fluoropyrimidine-2,4(1H,3H)-dione] | < 1 | < 6 | – | –
O=c1[nH]c(=O)n([C@H]2C[C@@H]3OP(=O)(OCc4ccc(F)cc4C4OCCO4)OC[C@H]3O2)cc1F (stereo partly drawn) [Compound 219, 1-((4aR,6R,7aS)-2-((2-(1,3-Dioxolan-2-yl)-4-fluorobenzyl)oxy)-2-oxidotetrahydro-4H-furo[3,2-d][1,3,2]dioxaphosphinin-6-yl)-5-fluoropyrimidine-2,4(1H,3H)-dione] | – | – | 20 | 49.9
